SMILES strings stand for the structures.

One assay has as its target T1, CRAC channel (Homo sapiens, UniProt Q96D31).
T1 construct: endogenous in cells; host or cells: HEK293 (ECACC), untransfected
The assay can be described thus: HEK Calcium Influx Assay (FLIPR), inhibition of store-operated Ca2+ entry after thapsigargin store depletion. In kind it is cell-based. To be noted: 10 μM compound, HEK293 cells, read-out: % inhib. [@ 10 μM] FLIPR. The protocol: The effect of compounds of the invention on intracellular [Ca^2+] was tested in the HEK293 cell line (ECACC).
HEK293 cells were cultured in DMEM/F12/Glutamax (Gibco) containing 10% FCS (Gibco), and maintained at 37° C., 5% CO2. Cell were split twice a week [3*10^6 (Mon-Thu) and 1*10^6 (Thu-Mon) cells/50 ml medium in 1-175 ZK culture flasks, respectively]. Twenty four hours pre-experiment, cells were seeded on 96 well plates (Poly-D-Lysine 96 well Black/Clear Plate, BD Biocoat REF 356640) at a density of 40,000 cells/well in DMEM/F12 (Gibco) containing 10% FCS (Gibco), and maintained at 37° C., 5% CO2.
Prior to store-depletion, cell culture medium was removed and cells were loaded with the Calcium-sensitive fluorescent dye comprised within the Calcium-4-assay kit (Molecular Devices) in nominally Ca^2+-free HBS buffer (140 mM NaCl, 4 mM KCl, 0.2 mM MgCl2, 11 mM D-glucose, and 10 mM HEPES, pH 7.4) according to manufacturer's instruction for 60 min at 37° C., 5% CO2.
Passive depletion of intracellular Ca^2+-stores was then triggered by employing the SERCA inhibitor thapsigargin (2 μM final) for 10 min in the dark (RT). To prevent immediate Ca^2+-entry via the activated store-operated channels (SOCs), cells were maintained in Ca^2+-free HBS buffer comprising 100 μM EGTA during store-depletion.
Intracellular changes in [Ca^2+] were subsequently monitored with the FLIPR device (Molecular Devices). In brief, baseline imaging post-store depletion was allowed for 1 min before adjusting the extracellular buffer to 3 mM CaCl2. Increases in intracellular [Ca^2+] due to pre-activated SOC channels were monitored for 15 min until intracellular Ca^2+ levels had declined into a steady-state. Finally, compounds were administered, and Ca^2+ signals were recorded for additional 10 min.
Inhibition of endogenous SOC in HEK293 cells was quantified employing the average Ca^2+ signal measured from 9.5-10 min post-administration. Zero percent inhibition (MAX) was defined as the Ca^2+ signal recorded from wells to which DMSO-only had been added instead of compound. Hundred percent inhibition (MIN) was defined as the signal obtained from wells in which cells haven't been treated with TG prior to Ca^2+ addition and to which DMSO-only had been added instead of compound. For routine IC50 determinations of compounds, 8 concentrations of a serial dilution (1:3.16) were tested, starting off from 10 μM. Reliable IC50's could consequently be determined only, if they were at least sub 2.5-3 μM.

The subject of assay [1] is Interleukin-2 (IL-2) production/release in Jurkat T cells. The assay can be described thus: Jurkat IL-2 Production Assay (PHA-stimulated, IL-2 AlphaLisa). In kind it is cell-based. To be noted: Homo sapiens, PHA 15 μg/ml, 22 h, inhibition of IL-2 production. On the procedure:
The effect of compounds of the invention on Interleukin-2 (IL-2) production/release was tested in the Jurkat T cell line (ECACC) clone E6-1.
Jurkat T cells were cultured in DMEM/F12/Glutamax (Gibco) containing 10% FCS (Gibco), and maintained at 37° C., 5% CO2. Cells were split twice a week [5*10^6 (Mon-Thu) and 1*10^7 (Thu-Mon) cells/50 ml medium in 1-175 ZK culture flasks, respectively].
Prior to experiment, cells were seeded on 96 well plates (Cellstar 96 Well; Cat No. 655180, Greiner bio-one) at a density of 5*10^5 cells/well in DMEM/F12/Glutamax (Gibco) containing 10% FCS (Gibco), and incubated for 60 min at 37° C., 5% CO2. Subsequently, compounds were added and cells were allowed to incubate for 30 min at 37° C., 5% CO2. Cells were then stimulated with 15 μg/ml Phyto-hemagglutinin (PHA; Sigma) for 22 hours at 37° C., 5% CO2.
Before sampling of the supernatants, cells were spun down (200*g/5 min/RT). The amount of IL-2 released into the supernatant was quantified with the human IL-2 AlphaLisa kit (Perkin Elmer) according to manufacturer's instructions. Luminescence proximity measurements were carried out in the Synergy H4 reader (BioTek) employing the fluorescence setting of the reader (ex: 680/30 nm; em: 620/40 nm).
Inhibition of IL-2 production/release in/from Jurkat T cells was quantified as follows: Zero percent inhibition (MAX) was defined as the [IL-2] determined in supernatants derived from cells to which PHA & DMSO-only had been added instead of compound. Hundred percent inhibition (MIN) was defined as the [IL-2] determined in supernatants derived from cells that had been pre-treated with 1 μM CyclosporineA (Sigma) before the addition of 15 μg/ml PHA.
For routine IC50 determinations of compounds, 8 concentrations of a serial dilution (1:3.16) were tested, starting off from 10 μM.
(In general: Bead proximity is the source of the signal in Alpha formats.)

T1 sequence (Q96D31 whole entry): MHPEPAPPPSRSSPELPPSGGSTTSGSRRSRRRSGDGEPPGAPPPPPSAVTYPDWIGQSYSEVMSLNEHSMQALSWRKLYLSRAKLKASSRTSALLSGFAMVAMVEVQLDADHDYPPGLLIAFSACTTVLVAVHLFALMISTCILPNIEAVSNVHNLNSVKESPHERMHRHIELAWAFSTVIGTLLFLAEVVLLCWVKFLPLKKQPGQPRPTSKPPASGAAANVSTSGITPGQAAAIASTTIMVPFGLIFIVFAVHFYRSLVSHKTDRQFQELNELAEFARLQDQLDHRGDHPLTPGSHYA

As for `Cc1cc(S(C)(=O)=O)ncc1N1CCc2[nH]c(-c3c(F)cccc3F)cc2C1` [Example 16, 2-(2,6-Difluoro-phenyl)-5-(4-methyl-6-methylsulfonyl-pyridin-3-yl)-4,5,6,7-tetrahydro-1H-pyrrolo[3,2-c]pyridine], the inhibition at 10 µM at CRAC channel was greater than 70%. The IC50 (in general, the concentration that inhibits the measured activity by half) in assay [1] was less than 0.5 µM.
With `Cc1nc(-c2cccnc2)sc1N1CCc2[nH]c(-c3c(F)cccc3F)cc2C1` [Example 18, 5-[2-(2,6-Difluoro-phenyl)-4,5,6,7-tetrahydro-1H-pyrrolo[3,2-c]pyridin-5-yl]-4-methyl-2-pyridin-3-yl-thiazole], the inhibition at 10 µM at CRAC channel is greater than 70%. Moreover, the half-inhibitory concentration (IC50) in assay [1] is less than 0.5 µM.
For the compound `Cn1nc(C(F)(F)F)cc1N1CCc2[nH]c(-c3c(F)cccc3F)cc2C1` [Example 19, 2-(2,6-Difluoro-phenyl)-5-[2-methyl-5-(trifluoromethyl)-2H-pyrazol-3-yl]-4,5,6,7-tetrahydro-1H-pyrrolo[3,2-c]pyridine], the inhibition at 10 µM on CRAC channel is greater than 70%. For the same compound, the IC50 in assay [1] is less than 0.5 µM.
Regarding `Cc1cc2c(cc1N1CCc3[nH]c(-c4c(F)cccc4F)cc3C1)OC(F)(F)O2` [Example 20, 5-(2,2-Difluoro-6-methyl-1,3-benzodioxol-5-yl)-2-(2,6-difluoro-phenyl)-4,5,6,7-tetrahydro-1H-pyrrolo[3,2-c]pyridine], the inhibition at 10 µM at CRAC channel is less than 50%. Besides, in assay [1], the IC50 fell in the range of 1 to 5 µM.
As to `COc1ccc(OC)c(N2CCc3[nH]c(-c4c(F)cccc4F)cc3C2)c1` [Example 21, 2-(2,6-Difluoro-phenyl)-5-(2,5-dimethoxyphenyl)-4,5,6,7-tetrahydro-1H-pyrrolo[3,2-c]pyridine], on CRAC channel, the inhibition at 10 µM was greater than 70%. Besides, the IC50 in assay [1] fell in the range of 1 to 5 µM.
`Cc1ccccc1N1CCc2[nH]c(-c3c(F)cccc3F)cc2C1` [Example 22, 2-(2,6-Difluoro-phenyl)-5-o-tolyl-4,5,6,7-tetrahydro-1H-pyrrolo[3,2-c]pyridine]: the inhibition at 10 µM on CRAC channel is greater than 70%. In addition, the concentration for half-maximal inhibition (IC50) in assay [1] fell in the range of 1 to 5 µM.
On to `Cc1sc(-c2ccccc2)nc1N1CCc2[nH]c(-c3c(F)cccc3F)cc2C1` [Example 23, 4-[2-(2,6-Difluoro-phenyl)-4,5,6,7-tetrahydro-1H-pyrrolo[3,2-c]pyridin-5-yl]-5-methyl-2-phenyl-thaizole], for which, on CRAC channel, the inhibition at 10 µM was less than 50%. Besides, the IC50 in assay [1] fell in the range of 1 to 5 µM.
Turning to `Cc1sc(-c2ccncc2)nc1N1CCc2[nH]c(-c3c(F)cccc3F)cc2C1` [Example 24, 4-[2-(2,6-Difluoro-phenyl)-4,5,6,7-tetrahydro-1H-pyrrolo[3,2-c]pyridin-5-yl]-5-methyl-2-pyridin-4-yl-thiazole], on CRAC channel, the inhibition at 10 µM is greater than 70%. In addition, in assay [1], the 50% inhibitory concentration (IC50) is less than 0.5 µM.
In the same order, the values of `Cc1nc(N2CCc3[nH]c(-c4c(F)cccc4F)cc3C2)ccc1Br` [Example 25, 5-(5-Bromo-6-methyl-pyridin-2-yl)-2-(2,6-difluoro-phenyl)-4,5,6,7-tetrahydro-1H-pyrrolo[3,2-c]pyridine] are less than 50% and 1 to 5 µM.
On to `Cc1sc(-c2cnccn2)nc1N1CCc2[nH]c(-c3c(F)cccc3F)cc2C1` [Example 26, 4-[2-(2,6-Difluoro-phenyl)-4,5,6,7-tetrahydro-1H-pyrrolo[3,2-c]pyridin-5-yl]-5-methyl-2-pyrazin-2-yl-thiazole], for which, on CRAC channel, the inhibition at 10 µM was greater than 70%. Also, the IC50 in assay [1] was less than 0.5 µM.
`COc1cc(S(C)(=O)=O)ccc1N1CCc2[nH]c(-c3c(F)cccc3F)cc2C1` [Example 28, 2-(2,6-Difluoro-phenyl)-5-(2-methoxy-4-methylsulfonyl-phenyl)-4,5,6,7-tetrahydro-1H-pyrrolo[3,2-c]pyridine]: the inhibition at 10 µM at CRAC channel is greater than 70%. In addition, in assay [1], the IC50 is 0.5 to 1 µM.
Taken in the same sequence, the figures for `Cc1sc(-c2cncnc2)nc1N1CCc2[nH]c(-c3c(F)cccc3F)cc2C1` [Example 30, 4-[2-(2,6-Difluoro-phenyl)-4,5,6,7-tetrahydro-1H-pyrrolo[3,2-c]pyridin-5-yl]-5-methyl-2-pyrimidin-5-yl-thiazole] were greater than 70% and 0.5 to 1 µM.
As to `CCc1sc(-c2cccnc2)nc1N1CCc2[nH]c(-c3c(F)cccc3F)cc2C1` [Example 31, 4-[2-(2,6-Difluoro-phenyl)-4,5,6,7-tetrahydro-1H-pyrrolo[3,2-c]pyridin-5-yl]-5-ethyl-2-pyridin-3-yl-thiazole], the inhibition at 10 µM on CRAC channel is less than 50%. Moreover, the half-inhibitory concentration (IC50) in assay [1] was less than 0.5 µM.
For `Cc1ccc(Cl)cc1N1CCc2[nH]c(-c3c(F)cccc3Cl)cc2C1` [Example 64, 2-(2-Chloro-6-fluoro-phenyl)-5-(5-chloro-2-methyl-phenyl)-4,5,6,7-tetrahydro-1H-pyrrolo[3,2-c]pyridine], the inhibition at 10 µM at CRAC channel is less than 50%. Also, the half-inhibitory concentration (IC50) in assay [1] lay within 1 to 5 µM.
In the same order, the values of `Cc1sc(-c2cccnc2)nc1N1CCc2[nH]c(-c3c(F)cccc3F)c(I)c2C1` [Example 66, 4-[2-(2,6-Difluoro-phenyl)-3-iodo-4,5,6,7-tetrahydro-1H-pyrrolo[3,2-c]pyridin-5-yl]-5-methyl-2-pyridin-3-yl-thiazole] are less than 50% and 1 to 5 µM.
Taken in the same sequence, the figures for `Cc1cc(C#N)c(F)cc1N1CCc2[nH]c(-c3c(F)cccc3F)cc2C1` [Example 67, 4-[2-(2,6-Difluoro-phenyl)-4,5,6,7-tetrahydro-1H-pyrrolo[3,2-c]pyridin-5-yl]-2-fluoro-5-methyl-benzonitrile] were less than 50% and 0.5 to 1 µM.
Taken in the same sequence, the figures for `Cc1cc(C#N)cnc1N1CCc2[nH]c(-c3c(F)cccc3F)cc2C1` [Example 68, 6-[2-(2,6-Difluoro-phenyl)-4,5,6,7-tetrahydro-1H-pyrrolo[3,2-c]pyridin-5-yl]-5-methyl-nicotinonitrile] were greater than 70% and less than 0.5 µM.
Regarding `CCOc1cc(C)c(N2CCc3[nH]c(-c4c(F)cccc4F)cc3C2)cn1` [Example 69, 2-(2,6-Difluoro-phenyl)-5-(6-ethoxy-4-methyl-pyridin-3-yl)-4,5,6,7-tetrahydro-1H-pyrrolo[3,2-c]pyridine], the inhibition at 10 µM on CRAC channel is greater than 70%. Further, in assay [1], the IC50 is 0.5 to 1 µM.
As to `Cc1cc([S+](C)[O-])ncc1N1CCc2[nH]c(-c3c(F)cccc3F)cc2C1` (stereo not shown) [Example 70, 2-(2,6-Difluoro-phenyl)-5-[4-methyl-6-(methylsulfinyl)-pyridin-3-yl]-4,5,6,7-tetrahydro-1H-pyrrolo[3,2-c]pyridine], the inhibition at 10 µM at CRAC channel is greater than 70%. Moreover, the IC50 in assay [1] was 1 to 5 µM.
Taken in the same sequence, the figures for `Cc1cc(Cl)c(F)cc1N1CCc2[nH]c(-c3c(F)cccc3F)cc2C1` [Example 71, 5-(4-Chloro-5-fluoro-2-methyl-phenyl)-2-(2,6-difluoro-phenyl)-4,5,6,7-tetrahydro-1H-pyrrolo[3,2-c]pyridine] were less than 50% and 1 to 5 µM.

The values above are taken from US20160151337A1, “ANNELATED PYRROLES AND THEIR USE AS CRAC INHIBITORS” (Grünenthal GmbH, priority 2013, published 2016).
